Measurements: ChEMBL document CHEMBL1201862, “PubChem BioAssay data set” (2004)
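Dose response: 5 concentrations. Exposure: 48 h. Format: 96-well plates. Endpoint: linear interpolation; highest concentration if not reached. GI50 is the concentration that inhibits growth by half.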 Activity calls are given as the source filed them. Rule as the data show it: active = GI50 up to about 1.1 µM and inactive = higher.

How the values were obtained:
Assay in all cases: inhibition of tumour cell growth, NCI panel, 48 h
SNB-19 = system: SNB-19
NCI-H226 = system: NCI-H226
OVCAR-8 = system: OVCAR-8
SNB-75 = system: SNB-75
UO-31 = system: UO-31
DMS-273 = system: DMS-273
NCI-H522 = system: NCI-H522
SF-539 = system: SF-539
NCI-H23 = system: NCI-H23
HL-60 = system: HL-60
SN12C = system: SN12C
EKVX = system: EKVX
DMS-114 = system: DMS-114
HOP-62 = system: HOP-62
CCRF-CEM = system: CCRF-CEM
SK-MEL-5 = system: SK-MEL-5
COLO 205 = system: COLO 205
UACC-257 = system: UACC-257
SK-MEL-2 = system: SK-MEL-2
ACHN = system: ACHN
LXFL 529 = system: LXFL 529
MOLT-4 = system: MOLT-4
RXF 393 = system: RXF 393
HCC 2998 = system: HCC 2998
DLD-1 = system: DLD-1
CAKI-1 = system: CAKI-1
M14 = system: M14
IGROV-1 = system: IGROV-1
HT-29 = system: HT-29
RXF 631 = system: RXF 631
SNB-78 = system: SNB-78
OVCAR-3 = system: OVCAR-3
SR = system: SR
SF-295 = system: SF-295
SK-OV-3 = system: SK-OV-3
SW-620 = system: SW-620
Malme-3M = system: Malme-3M
SK-MEL-28 = system: SK-MEL-28
A549 = system: A549
OVCAR-4 = system: OVCAR-4
U-251 = system: U-251
KM12 = system: KM12
SF-268 = system: SF-268
NCI-H460 = system: NCI-H460
OVCAR-5 = system: OVCAR-5
KM-20L2 = system: KM-20L2
K562 = system: K562
HCT-116 = system: HCT-116
HOP-18 = system: HOP-18
HCT-15 = system: HCT-15
M19-MEL = system: M19-MEL
786-0 = system: 786-0
RPMI-8226 = system: RPMI-8226
UACC-62 = system: UACC-62
HOP-92 = system: HOP-92
XF498 = system: XF498
A498 = system: A498
TK-10 = system: TK-10
LOX IMVI = system: LOX IMVI

## COC1OC(COS(=O)(=O)c2ccc(C)cc2)C(O)C(OS(=O)(=O)c2ccc(C)cc2)C1OS(=O)(=O)c1ccc(C)cc1 (configuration not stated)
SNB-19
  GI50: > 100 µM (inactive)
NCI-H226
  GI50: > 100 µM (inactive)
OVCAR-8
  GI50: > 100 µM (inactive)
SNB-75
  GI50: 95.9 µM (inactive)
UO-31
  GI50: > 100 µM (inactive)
DMS-273
  GI50: > 100 µM (inactive)
NCI-H522
  GI50: > 100 µM (inactive)
SF-539
  GI50: > 100 µM (inactive)
NCI-H23
  GI50: > 100 µM (inactive)
HL-60
  GI50: > 100 µM (inactive)
SN12C
  GI50: > 100 µM (inactive)
EKVX
  GI50: > 100 µM (inactive)
DMS-114
  GI50: > 100 µM (inactive)
HOP-62
  GI50: > 100 µM (inactive)
CCRF-CEM
  GI50: > 100 µM (inactive)
SK-MEL-5
  GI50: > 100 µM (inactive)
COLO 205
  GI50: > 100 µM (inactive)
UACC-257
  GI50: > 100 µM (inactive)
SK-MEL-2
  GI50: > 100 µM (inactive)
ACHN
  GI50: > 100 µM (inactive)
LXFL 529
  GI50: > 100 µM (inactive)
MOLT-4
  GI50: > 100 µM (inactive)
RXF 393
  GI50: > 100 µM (inactive)
HCC 2998
  GI50: > 100 µM (inactive)
DLD-1
  GI50: > 100 µM (inactive)
CAKI-1
  GI50: 1.03 µM (active)
M14
  GI50: > 100 µM (inactive)
IGROV-1
  GI50: > 100 µM (inactive)
HT-29
  GI50: > 100 µM (inactive)
RXF 631
  GI50: > 100 µM (inactive)
SNB-78
  GI50: > 100 µM (inactive)
OVCAR-3
  GI50: > 100 µM (inactive)
SR
  GI50: > 100 µM (inactive)
SF-295
  GI50: > 100 µM (inactive)
SK-OV-3
  GI50: > 100 µM (inactive)
SW-620
  GI50: 16 µM (inactive)
Malme-3M
  GI50: > 100 µM (inactive)
SK-MEL-28
  GI50: > 100 µM (inactive)
A549
  GI50: > 100 µM (inactive)
OVCAR-4
  GI50: > 100 µM (inactive)
U-251
  GI50: > 100 µM (inactive)
KM12
  GI50: > 100 µM (inactive)
SF-268
  GI50: > 100 µM (inactive)
NCI-H460
  GI50: > 100 µM (inactive)
OVCAR-5
  GI50: > 100 µM (inactive)
KM-20L2
  GI50: > 100 µM (inactive)
K562
  GI50: > 100 µM (inactive)
HCT-116
  GI50: > 100 µM (inactive)
HOP-18
  GI50: > 100 µM (inactive)
HCT-15
  GI50: > 100 µM
M19-MEL
  GI50: > 100 µM (inactive)
786-0
  GI50: > 100 µM (inactive)
RPMI-8226
  GI50: > 100 µM (inactive)

## COc1ccc(OC(=O)CC2Cc3cc(OC)c(OC)c(OC)c3-c3ccc(SC)c(=O)cc32)cc1 (configuration not stated)
SNB-19
  GI50: 0.12 µM (active)
NCI-H226
  GI50: 0.216 µM (active)
OVCAR-8
  GI50: 0.27 µM (active)
SNB-75
  GI50: 2.52 µM (inactive)
UO-31
  GI50: 0.792 µM (active)
DMS-273
  GI50: 0.102 µM (active)
NCI-H522
  GI50: 0.2 µM (active)
SF-539
  GI50: 0.114 µM (active)
NCI-H23
  GI50: 0.421 µM (active)
UACC-62
  GI50: 0.232 µM (active)
HL-60
  GI50: 0.0893 µM (active)
SN12C
  GI50: 0.3 µM (active)
EKVX
  GI50: > 28.7 µM (inactive)
DMS-114
  GI50: 0.348 µM (active)
HOP-62
  GI50: 0.183 µM (active)
CCRF-CEM
  GI50: 0.184 µM (active)
SK-MEL-5
  GI50: 0.378 µM (active)
COLO 205
  GI50: 0.403 µM (active)
UACC-257
  GI50: 0.273 µM (active)
SK-MEL-2
  GI50: 2.14 µM (inactive)
ACHN
  GI50: 0.792 µM (active)
LXFL 529
  GI50: 0.217 µM (active)
MOLT-4
  GI50: 0.387 µM (active)
RXF 393
  GI50: 0.115 µM (active)
HCC 2998
  GI50: 0.0568 µM (active)
DLD-1
  GI50: 0.344 µM (active)
M14
  GI50: 0.34 µM (active)
HOP-92
  GI50: 0.467 µM (active)
XF498
  GI50: 0.258 µM (active)
IGROV-1
  GI50: 1.85 µM (inactive)
HT-29
  GI50: 0.342 µM (active)
A498
  GI50: 0.0332 µM (active)
RXF 631
  GI50: 0.281 µM (active)
OVCAR-3
  GI50: 0.185 µM (active)
SR
  GI50: 0.463 µM (active)
SF-295
  GI50: 0.0794 µM (active)
SK-OV-3
  GI50: 0.0277 µM (active)
SW-620
  GI50: 0.0783 µM (active)
TK-10
  GI50: 29.7 µM (inactive)
Malme-3M
  GI50: 0.383 µM (active)
SK-MEL-28
  GI50: 0.698 µM (active)
A549
  GI50: 0.762 µM (active)
OVCAR-4
  GI50: 11.7 µM (inactive)
U-251
  GI50: 0.224 µM (active)
LOX IMVI
  GI50: 0.172 µM (active)
KM12
  GI50: 0.107 µM (active)
SF-268
  GI50: 2.74 µM (inactive)
NCI-H460
  GI50: 0.245 µM (active)
KM-20L2
  GI50: 0.169 µM (active)
K562
  GI50: 0.0805 µM (active)
HCT-116
  GI50: 0.156 µM (active)
HCT-15
  GI50: 0.467 µM
M19-MEL
  GI50: 5.74 µM (inactive)
786-0
  GI50: 0.0551 µM (active)
RPMI-8226
  GI50: 0.128 µM (active)

## CCOC(=O)NC(=O)c1cn(CCOCCOC(=O)NCCCCCCNC(=O)OCCOCCn2cc(C(=O)NC(=O)OCC)c(=O)[nH]c2=O)c(=O)[nH]c1=O
SNB-19
  GI50: > 100 µM (inactive)
OVCAR-8
  GI50: > 100 µM (inactive)
SNB-75
  GI50: > 100 µM (inactive)
UO-31
  GI50: > 100 µM (inactive)
DMS-273
  GI50: > 100 µM (inactive)
NCI-H522
  GI50: > 100 µM (inactive)
SF-539
  GI50: > 100 µM (inactive)
NCI-H23
  GI50: > 100 µM (inactive)
UACC-62
  GI50: > 100 µM (inactive)
HL-60
  GI50: > 100 µM (inactive)
SN12C
  GI50: > 100 µM (inactive)
EKVX
  GI50: > 100 µM (inactive)
DMS-114
  GI50: > 100 µM (inactive)
HOP-62
  GI50: > 100 µM (inactive)
SK-MEL-5
  GI50: > 100 µM (inactive)
COLO 205
  GI50: > 100 µM (inactive)
UACC-257
  GI50: > 100 µM (inactive)
SK-MEL-2
  GI50: > 100 µM (inactive)
ACHN
  GI50: > 100 µM (inactive)
LXFL 529
  GI50: > 100 µM (inactive)
RXF 393
  GI50: > 100 µM (inactive)
HCC 2998
  GI50: > 100 µM (inactive)
DLD-1
  GI50: > 100 µM (inactive)
M14
  GI50: > 100 µM (inactive)
HOP-92
  GI50: > 100 µM (inactive)
IGROV-1
  GI50: > 100 µM (inactive)
HT-29
  GI50: > 100 µM (inactive)
A498
  GI50: > 100 µM (inactive)
RXF 631
  GI50: > 100 µM (inactive)
SNB-78
  GI50: > 100 µM (inactive)
OVCAR-3
  GI50: > 100 µM (inactive)
SR
  GI50: > 100 µM (inactive)
SF-295
  GI50: > 100 µM (inactive)
SK-OV-3
  GI50: > 100 µM (inactive)
SW-620
  GI50: > 100 µM (inactive)
TK-10
  GI50: > 100 µM (inactive)
Malme-3M
  GI50: > 100 µM (inactive)
SK-MEL-28
  GI50: > 100 µM (inactive)
A549
  GI50: > 100 µM (inactive)
OVCAR-4
  GI50: > 100 µM (inactive)
U-251
  GI50: > 100 µM (inactive)
LOX IMVI
  GI50: > 100 µM (inactive)
KM12
  GI50: > 100 µM (inactive)
SF-268
  GI50: > 100 µM (inactive)
NCI-H460
  GI50: > 100 µM (inactive)
OVCAR-5
  GI50: > 100 µM (inactive)
KM-20L2
  GI50: > 100 µM (inactive)
K562
  GI50: > 100 µM (inactive)
HCT-116
  GI50: > 100 µM (inactive)
HOP-18
  GI50: > 100 µM (inactive)
HCT-15
  GI50: > 100 µM
M19-MEL
  GI50: > 100 µM (inactive)
786-0
  GI50: > 100 µM (inactive)
RPMI-8226
  GI50: > 100 µM (inactive)
